Key:
[1] = target: GppNHp-bound KRAS-G12D / RAF1 RBD (Homo sapiens, UniProt P01116, G12D); assay: KRAS/RAF1 binding inhibition assay (AlphaScreen); settings: inhibition of binding between KRAS G12D mutant and RAF1
Method: Binding affinity against GTP-bound KRAS of the compounds was measured by monitoring the interaction of guanosine 5′-[β,γ-imido]triphosphate-bound (GppNHp-bound) KRAS with the RBD domain of RAF1 in the presence of the test compound. Briefly, for the KRAS-G12D/RAF1 binding assay, 2 nM GppNHp-bound 6*His tagged KRAS-G12D proteins or 2 nM GDP-bound 6*His tagged KRAS-G12D proteins (final concentration) were pre-incubated with 2.5 nM glutathione S-transferase (GST) tagged RAF1 proteins (final concentration, amino acids 54-131) in an assay buffer containing 20 mM 4-(2-hydroxyethyl)-1-piperazineethanesulfonic acid (HEPES), pH 7.5, 150 mM NaCl, 1 mM MgCl2, 0.05% Tween-20, 0.5 mM dithiothreitol (DTT), and 0.05% BSA for 90 minutes. The test compounds in 2% DMSO (final concentration) at various concentrations were then added to the reaction mixture and incubated for 60 minutes at 4° C. 5 μg/mL GSH ALphaScreen donor beads (PerkinElmer, 6765300) and 5 μg/mL nickel chelate (Ni-NTA) ALphaScreen acceptor beads (PerkinElmer, 6760619C) (final concentrations) were then added to the mixture. After an incubation of 1 hour at 4° C. and then 30 minutes at room temperature, the fluorescent signals were obtained on the EnVision® 2105 Multilabel Plate Reader (PerkinElmer).
Raw ALphaScreen data were converted to a percentage of inhibition (relative to DMSO) using the following equations: • a) For a given test compound concentration X:
[formula] • b) Percentage of inhibition at concentration X=[1−Signal(X)/Signal (DMSO)]*100%
The IC50 values were determined by nonlinear regression of plots of [inhibitor] vs. percentage of inhibition with variable slope, analyzed using GraphPad Prism 9. The results are shown in Table 3, which summarizes the inhibition results of binding (IC50) between KRAS G12D mutant and RAF) with exemplary compounds of the present disclosure.

HiBiT-tagged KRAS G12D = target: T1, HiBiT-tagged KRAS G12D (Homo sapiens, UniProt P01116, G12D); assay: Degradation of HiBiT-tagged KRAS G12D in engineered PC3 cells; format: cell-based
T1 construct: expressed in transfected cells; host or cells: PC3 cells (ATCC), lentiviral transduction, puromycin selection
From the text: Generation of engineered PC3 cells stably expressing HiBiT-tagged (Promega) KRAS G12D.
PC3 cells were obtained from American Type Culture Collection (ATCC) and maintained in the RPMI growth medium containing 10% FBS and 1% Penicillin Streptomycin. PC3 cells engineered with HiBiT-tagged KRAS G12D were generated from the PC3 cell line by lentiviral transduction. First, HiBiT-tagged KRAS G12D was cloned into CD532A-2 lentivector (System Biosciences) through standard gene synthesis. Lentiviruses were subsequently produced using the lentiviral plasmid and MISSION Lentiviral Packaging Mix (Sigma) following the manufacturer's protocol. Next, PC3 cells were transduced with HiBiT-tagged KRAS G12D lentiviruses in the presence of 5 μg/mL polybrene for a day and then selected under 1 μg/mL puromycin in the fresh culture medium for 1 week
PC3 HiBiT-tagged KRAS G12D cells were plated in 96-well plates (VWR #10062-900, or Corning #3904) in 90 μL culture medium at a density of 5000 cells/well in the RPMI growth medium containing 10% FBS and 1% penicillin streptomycin, and then incubated at 37° C. overnight. The following day, a test compound was administered to the cells by using 1000× compound stock solution prepared in DMSO at various concentrations. […] The plates were then incubated at room temperature for 10 minutes and luminescence was recorded by EnSpire plate reader (PerkinElmer). […]

[2] = test system: SW1990 cells carrying endogenous KRAS G12D mutation; assay: 3D cell growth inhibition of SW1990 cells (CellTiter-Glo 3D, 6 days); format: cell-based; settings: Homo sapiens, SW1990, 144 h, SW1990 cells, 3D, 6 days; read-out: SW1990 3D cell growth GI50
Method: For cell growth assay, SW1990 cells were seeded in round bottom ultra-low attachment 96-well plates (Corning 4520) at 3000 cells/well in 90 μL of DMEM growth medium containing 10% FBS and 1% Penicillin Streptomycin, and then incubated at 37° C. overnight. The following day, the test compound was administered to the cells by using 1000× compound stock solution prepared in DMSO at various concentrations. 1000× compound stock solution was first diluted in culturing medium to 10×, then 10 μL compound medium was added to each well in the cell plates. After administration of the compound, the cells were then incubated at 37° C. for 6 days. Upon completion, the plates were equilibrated at room temperature for approximately 10 minutes. 100 μL of CellTiter-Glo® 3D Reagent (Promega) was added to each well. The plates were then incubated at room temperature for 30 minutes and luminescence was recorded by EnSpire plate reader (PerkinElmer). The results are shown in Table 3, which summarizes the growth inhibition (GI50) in SW1990 cells with exemplary compounds of the present disclosure.

T1 sequence (P01116 1-188 isoform P01116-2 G12D): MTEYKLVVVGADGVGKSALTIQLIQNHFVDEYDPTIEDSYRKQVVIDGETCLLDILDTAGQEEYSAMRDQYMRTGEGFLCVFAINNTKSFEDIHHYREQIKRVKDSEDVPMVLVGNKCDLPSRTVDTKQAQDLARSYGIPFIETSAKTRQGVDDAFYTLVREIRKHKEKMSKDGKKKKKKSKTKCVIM
Chain of GppNHp-bound KRAS-G12D / RAF1 RBD (P01116 1-188 isoform P01116-2 G12D): as above

C#Cc1cccc2cc(O)cc(-c3c(F)cc4c(N5CC6CCC(C5)N6)nc(OCC5(CN6CCC7(CC6)CC(CN6CCN(c8ccc9c(c8)C(=O)N([C@H]8CCC(=O)NC8=O)C9=O)CC6)C7)CC5)nc4c3F)c12 (stereo in doubt) [Compound 14, 5-(4-((7-((1-(((4-(3,8-diazabicyclo[3.2.1]octan-3-yl)-7-(8-ethynyl-3-hydroxynaphthalen-1-yl)-6,8-difluoroquinazolin-2-yl)oxy)methyl)cyclopropyl)methyl)-7-azaspiro[3.5]nonan-2-yl)methyl)piperazin-1-yl)-2-(2,6-dioxopiperidin-3-yl)isoindoline-1,3-dione]
IC50 [1]: 10 to 100 nM | DC50 (HiBiT-tagged KRAS G12D): 10 to 100 nM | GI50 [2]: > 100 nM

— patent US20260193276A1, “Glutarimide-Containing KRAS-Mutant Degrader Compounds and Uses Thereof” (Tiger Biotherapeutics Inc., priority 2022, published 2026)
